Laboratory results published in ChEMBL document CHEMBL1149795, “5,7-Dihydroxychromone-2-carboxylic acid and it's transition-metal (Mn and Zn) chelates as non-thiol radioprotective agents” (Eur J Med Chem, 2008).

Columns and labels:
Mus musculus [1] = experiment: Radioprotective activity against gamma-irradiation in NMRI mouse assessed as survival at 0.5 mmol/kg, sc administered 24 hrs prior to irradiation measured after 30 days; assay type: functional; settings: light or radiation study
[2] = Toxicity against sc dosed NMRI mouse; assay type: organism-based; settings: in vivo
Mus musculus [3] = experiment: Radioprotective activity against gamma-irradiation in NMRI mouse assessed as survival at 1.0 mmol/kg, sc administered 24 hrs prior to irradiation measured after 30 days; assay type: functional; settings: light or radiation study
Mus musculus [4] = experiment: Radioprotective activity against gamma-irradiation in NMRI mouse assessed as survival at 0.5 mmol/kg, sc administered 1 hr prior to irradiation measured after 30 days; assay type: functional; settings: light or radiation study

SMILES: O=C(O)c1cc(=O)c2c(O)cc(O)cc2o1
- survival at 500 µmol/kg (Mus musculus [1]): 35%
- LD50 [2]: > 1500 mg/kg
- survival at 1000 µmol/kg (Mus musculus [3]): 50%

SMILES: NCCCNCCSP(=O)(O)O [AMIFOSTINE]
- survival at 500 µmol/kg (Mus musculus [4]): 81%
- LD50 [2]: 609 mg/kg
